# Source: patent US10178866B2, “N-halamine containing fibrous compositions and uses thereof” (priority 2014, dated 2019)
# Columns and labels:
# [1] = storage (shelf-life) stability of oxidative chlorine on impregnated fabrics, iodometric/thiosulfate titration; assay type: physicochemical; conditions: for Chlorine loading, dark storage / Chlorine loading, fluorescent light: 22 g/m^2 fabric, 22° C.
# Protocol: A modified iodometric/thiosulfate titration procedure was used to determine the active chlorine content on the fabrics impregnated with compound I (see, for example, Worley et al., “Novel N-halamine Siloxane Monomers and Polymers for Preparing Biocidal Coatings,” Surf Coat. Int., Part B, 2005; 88:93, herein incorporated by reference in its entirety). Cl^+% was calculated by the equation given below, where Cl^+% is the weight percent of the oxidative chlorine, N and V are
# [formula] the normality (equiv/L) and volume (L) of the Na2S2O3 (titrant), respectively, and W is the weight of the polypropylene fabric in grams.
# Storage or shelf-life stability of the impregnated 22 g/m^2 fabrics was evaluated in the instant example. Fabric samples were stored in a cabinet (e.g., a dark environment) without exposure to fluorescent light and on the laboratory bench (e.g., under fluorescent light) at room temperature. The stability of the chlorine content over time was measured for 24 weeks. The stabilities of the fabrics impregnated with compound I with a basis weight of 22 g/m^2 were determined at 22° C. by measuring the amount of remaining chlorine on the fabrics by using the standard iodometric/thiosulfate titration procedure.
# [2] = tested on: Staphylococcus aureus ATCC 6538; test: sandwich test, wet wipes; assay type: cell-based; conditions: contact time 1 min, inoculum 6.35
# Protocol: (§1) In the first test, CVS brand commercial wet wipes were first dried at 45° C. for 1 hour before impregnation with solutions of compound I. Different concentrations (wt %) of compound I were prepared in ethyl alcohol, and the wipes were soaked in the solutions for 5 minutes. After soaking in the solutions, each wipe was mounted between two filter papers, and a weight of 290 grams was placed uniformly over the stack. At the end of a 30 second period, the wet wipes were placed in closed vials to prevent further loss of solvent.
# (§2) For antibacterial testing, CVS brand commercial wipes were used as received as controls and wipes impregnated with compound I at a concentration of 1.0 wt % in ethyl alcohol were prepared as described above. […] After the plates were incubated at 37° C. for 24 hours, viable bacterial colonies were counted for the biocidal efficacy analysis.
# [3] = tested on: Escherichia coli O157:H7 ATCC 43895; test: sandwich test, wet wipes; assay type: cell-based; conditions: contact time 1 min, inoculum 6.50
# Protocol: as §1, §2
# [4] = tested on: Staphylococcus aureus ATCC 6538; test: sandwich contact test, polypropylene nonwoven face-piece material; assay type: cell-based; conditions: inoculum 6.26 log
# Protocol: (§3) Compound I (1-chloro-2,2,5,5-tetramethyl-imidazolindinone) at 1 wt %) was dissolved in ethyl alcohol solution at room temperature, and then 300 cm^2 pieces of polypropylene nonwoven fabrics were soaked in the solution for 10 minutes. The fabrics were then padded through a laboratory wringer (Birch Brothers Southern, Waxhaw, N.C., U.S.A.) at low pressure settings. This procedure was followed by drying the fabrics at room temperature for 24 hours. The control fabrics were untreated 22 g/m^2 and 50 g/m^2 polypropylene nonwovens.
# (§4) Two types of tests were conducted in order to determine the biocidal efficacy of the face mask embodiments. Staphylococcus aureus (S. aureus, ATCC 6538) was used as a Gram-positive bacterium and Escherichia coli(E. coli O157:H7, ATCC 43895) was used as a Gram-negative bacterium in order to challenge the treated (impregnated with compound I) and non-treated (control) fabrics.
# (§5) In the first method, a “sandwich test” was used (see Worley et al., “Novel N-halamine Siloxane Monomers and Polymers for Preparing Biocidal Coatings,” Surf Coat. Int., Part B, 2005; 88:93). In this procedure, bacteria were suspended in 100 μM phosphate buffer (pH 7) to produce a suspension of known concentration of bacteria (colony forming units, CFU/mL). Then, an aliquot of 25 μL of this suspension was placed in the center of a 2.54 cm square swatch, and a second identical swatch was placed on top. Both swatches were covered by a sterile weight to ensure sufficient contact with the bacteria. After predetermined contact times, samples were quenched by 5.0 mL of sterile 0.02 N sodium thiosulfate solution to neutralize the oxidative chlorine and thus terminate the disinfection action. Samples were vortexed for 2 minutes, and then serial dilutions were prepared using pH 7, 100 μM phosphate buffer and plated on Trypticase soy agar plates. After incubating the plates at 37° C. for 24 hours, bacterial colonies were counted for the biocidal efficacy analysis. For each contact time a single fabric swatch sandwich was vortexed in a quenching solution to wash the bacteria into a suspension which was immediately plated into duplicate serial dilutions followed by incubation and counting the viable colonies of bacteria. All experiments were performed at least twice (on different days) using different bacterial inocula.
# (§6) Antimicrobial efficacy of the mask materials was analyzed by the sandwich contact test method. The antimicrobial efficacies of the treated (impregnated with compound I) and non-treated (control) swatches were evaluated by challenging both types of fabrics against S. aureus and E. coli O157:H7 where the bacteria inoculum population was 1.80×10^6 CFU and 1.27×10^6 CFU, respectively. In Table 2, antimicrobial results are summarized at different contact time intervals.
# [5] = tested on: Escherichia coli O157:H7 ATCC 43895; test: as above; assay type: cell-based; conditions: inoculum 6.10 log
# Protocol: as §3, §4, §5, §6
# [6] = 22 g/m^2 fabric, Cl^+ % = 0.52, contact time 5 min
# [7] = 22 g/m^2 fabric, Cl^+ % = 0.52, contact time 10 min
# [8] = 22 g/m^2 fabric, Cl^+ % = 0.52, contact time 15 min
# [9] = 22 g/m^2 fabric, Cl^+ % = 0.52, contact time 30 min
# [10] = 50 g/m^2 fabric, Cl^+ % = 0.52, contact time 5 min
# [11] = 50 g/m^2 fabric, Cl^+ % = 0.52, contact time 10 min
# [12] = 50 g/m^2 fabric, Cl^+ % = 0.52, contact time 15 min
# [13] = 50 g/m^2 fabric, Cl^+ % = 0.52, contact time 30 min
smiles,measurement,setting,value
"CC1(C)NC(=O)C(C)(C)N1Cl [Compound I, 1-chloro-2,2,5,5-tetramethyl-4-imidazolidinone]","Chlorine loading, dark storage",[1]; 2 weeks,0.37 wt % Cl^+
same,"Chlorine loading, fluorescent light",[1]; 2 weeks,0.05 wt % Cl^+
same,"Chlorine loading, dark storage",[1]; 3 weeks,0.40 wt % Cl^+
same,"Chlorine loading, fluorescent light",[1]; 3 weeks,0 wt % Cl^+
same,"Chlorine loading, dark storage",[1]; 5 weeks,0.37 wt % Cl^+
same,"Chlorine loading, fluorescent light",[1]; 5 weeks,0 wt % Cl^+
same,"Chlorine loading, dark storage",[1]; 8 weeks,0.40 wt % Cl^+
same,"Chlorine loading, fluorescent light",[1]; 8 weeks,0 wt % Cl^+
same,"Chlorine loading, dark storage",[1]; 12 weeks,0.42 wt % Cl^+
same,"Chlorine loading, fluorescent light",[1]; 12 weeks,0 wt % Cl^+
same,"Chlorine loading, dark storage",[1]; 24 weeks,0.41 wt % Cl^+
same,"Chlorine loading, fluorescent light",[1]; 24 weeks,0 wt % Cl^+
same,"Chlorine loading, dark storage",[1]; Initial,0.36 wt % Cl^+
same,"Chlorine loading, fluorescent light",[1]; Initial,0.40 wt % Cl^+
same,chlorine loss on storage,"[1]; fabrics exposed to fluorescent light, after 3 weeks of exposure",the remaining chlorine was lost
same,chlorine loss on storage,"[1]; fabrics exposed to fluorescent light, within a 2 week time period",Almost all of the initial chlorine loading was lost
same,chlorine loss on storage,"[1]; fabrics stored in dark environmental conditions, 6 month time period",no significant chlorine loss
same,Bacterial Reduction (logs) S. aureus,[2],6.35 logs
same,Bacterial Reduction (logs) E. coli O157:H7,[3],6.5 logs
same,Bacterial reduction (log) S. aureus,[4]; [6],4.13 log
same,Bacterial reduction (log) S. aureus,[4]; [7],6.26 log
same,Bacterial reduction (log) S. aureus,[4]; [8],6.26 log
same,Bacterial reduction (log) S. aureus,[4]; [9],6.26 log
same,Bacterial reduction (log) S. aureus,[4]; [10],6.26 log
same,Bacterial reduction (log) S. aureus,[4]; [11],6.26 log
same,Bacterial reduction (log) S. aureus,[4]; [12],6.26 log
same,Bacterial reduction (log) S. aureus,[4]; [13],6.26 log
same,Bacterial reduction (log) E. coli,[5]; [6],3.68 log
same,Bacterial reduction (log) E. coli,[5]; [7],6.10 log
same,Bacterial reduction (log) E. coli,[5]; [8],6.10 log
same,Bacterial reduction (log) E. coli,[5]; [9],6.10 log
same,Bacterial reduction (log) E. coli,[5]; [10],3.80 log
same,Bacterial reduction (log) E. coli,[5]; [11],6.10 log
same,Bacterial reduction (log) E. coli,[5]; [12],6.10 log
same,Bacterial reduction (log) E. coli,[5]; [13],6.10 log
